Reference: patent US7652022B2, “Diaryl urea derivatives useful for the treatment of protein kinase dependent diseases” (Novartis AG, priority 2002, dated 2010)

Legend:
[1] = molecular target: T1, human VEGF-R2 receptor (KDR) (Homo sapiens, UniProt P35968); test: Inhibition of VEGF-induced VEGF-R2 (KDR) autophosphorylation in transfected CHO cells, sandwich ELISA; assay type: cell-based; details: % inhibition at 10 μM
T1 construct: expressed in transfected cells
Description: The inhibition of VEGF-induced receptor autophosphorylation can be confirmed with a further in vitro experiments in cells such as transfected CHO cells, which permanently express human VEGF-R2 receptor (KDR), are seeded in complete culture medium (with 10% fetal calf serum=FCS) in 6-well cell-culture plates and incubated at 37° C. under 5% CO2 until they show about 80% confluency. The compounds to be tested are then diluted in culture medium (without FCS, with 0.1% bovine serum albumin) and added to the cells. (Controls comprise medium without test compounds). After two hours of incubation at 37° C., recombinant VEGF is added; the final VEGF concentration is 20 ng/ml. After a further five minutes incubation at 37° C., the cells are washed twice with ice-cold PBS (phosphate-buffered saline) and immediately lysed in 100 μl lysis buffer per well. The lysates are then centrifuged to remove the cell nuclei, and the protein concentrations of the supernatants are determined using a commercial protein assay (BIORAD). The lysates can then either be immediately used or, if necessary, stored at −20° C.
The plates are then washed and the remaining free protein-binding sites are saturated with 3% TopBlock® (Juro, Cat. # TB232010) in phosphate buffered saline with Tween 20® (polyoxyethylen(20)sorbitane monolaurate, ICI/Uniquema) (PBST). The cell lysates (20 μg protein per well) are then incubated in these plates overnight at 4° C. together with an antiphosphotyrosine antibody coupled with alkaline phosphatase (PY20:AP from Zymed). […] The luminescence is measured in a Packard Top Count Microplate Scintillation Counter. The difference between the signal of the positive control (stimulated with VEGF) and that of the negative control (not stimulated with VEGF) corresponds to VEGF-induced VEGF-R2 phosphorylation (=100%). The activity of the tested substances is calculated as percent inhibition of VEGF-induced VEGF-R2 phosphorylation, wherein the concentration of substance that induces half the maximum inhibition is defined as the IC50 (inhibitory dose for 50% inhibition). […]

[2] = molecular target: T2, c-Abl kinase (His-tagged kinase domain of c-Abl) (Homo sapiens, UniProt P00519); test: c-Abl protein-tyrosine kinase in vitro enzyme filter binding assay; assay type: biochemical; details: % inhibition at 10 μM
T2 construct: The His-tagged kinase domain of c-Abl is cloned and expressed in the baculovirus/Sf9 system; His tag; made in house; host or cells: Sf9 insect cells (baculovirus)
T2 sequence (P00519 242-493 limits assumed): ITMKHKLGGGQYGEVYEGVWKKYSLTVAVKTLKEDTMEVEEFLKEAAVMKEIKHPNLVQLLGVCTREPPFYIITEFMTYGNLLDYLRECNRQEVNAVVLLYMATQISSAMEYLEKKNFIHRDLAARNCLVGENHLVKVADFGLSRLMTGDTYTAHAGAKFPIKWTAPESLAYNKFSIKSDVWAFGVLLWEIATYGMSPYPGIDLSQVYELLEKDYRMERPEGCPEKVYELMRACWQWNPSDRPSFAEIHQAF
Description: An in vitro enzyme assay is performed in 96-well plates as a filter binding assay as described by Geissler et al. in Cancer Res. 1992; 52:4492-4498, with the following modifications. The His-tagged kinase domain of c-Abl is cloned and expressed in the baculovirus/Sf9 system as described by Bhat et al. in J. Biol. Chem. 1997; 272:16170-16175. A protein of 37 kD (c-Abl kinase) is purified by a two-step procedure over a Cobalt metal chelate column followed by an anion exchange column with a yield of 1-2 mg/L of Sf9 cells (Bhat et al., reference cited). The purity of the c-Abl kinase is >90% as judged by SDS-PAGE after Coomassie blue staining. The assay contains (total volume of 30 μL): c-Abl kinase (50 ng), 20 mM Tris·HCl, pH 7.5, 10 mM MgCl2, 10 μM Na3VO4, 1 mM DTT and 0.06 μCi/assay [γ^33 P]-ATP (5 μM ATP) using 30 μg/mL poly-Ala,Glu,Lys,Tyr-6:2:5:1 (Poly-AEKY, Sigma P1152) in the presence of 1% DMSO. Reactions are terminated by adding 10 μL of 250 mM EDTA and 30 μL of the reaction mixture is transferred onto Immobilon-PVDF membrane (Millipore, Bedford, Mass., USA) previously soaked for 5 min with methanol, rinsed with water, then soaked for 5 min with 0.5% H3PO4 and mounted on vacuum manifold with disconnected vacuum source. After spotting all samples, vacuum is connected and each well rinsed with 200 μL 0.5% H3PO4. Membranes are removed and washed on a shaker with 0.5% H3PO4 (4 times) and once with ethanol. Membranes are counted after drying at ambient temperature, mounting in Packard TopCount 96-well frame, and addition of 10 μL/well of Microscint™ (Packard).
Enzymatic (c-Abl, KDR, Flt3) data are given on Table 17 (% inhibition at 10 μM). (Measurements are made as described above in the general description).

T1 sequence (P35968 20-1356): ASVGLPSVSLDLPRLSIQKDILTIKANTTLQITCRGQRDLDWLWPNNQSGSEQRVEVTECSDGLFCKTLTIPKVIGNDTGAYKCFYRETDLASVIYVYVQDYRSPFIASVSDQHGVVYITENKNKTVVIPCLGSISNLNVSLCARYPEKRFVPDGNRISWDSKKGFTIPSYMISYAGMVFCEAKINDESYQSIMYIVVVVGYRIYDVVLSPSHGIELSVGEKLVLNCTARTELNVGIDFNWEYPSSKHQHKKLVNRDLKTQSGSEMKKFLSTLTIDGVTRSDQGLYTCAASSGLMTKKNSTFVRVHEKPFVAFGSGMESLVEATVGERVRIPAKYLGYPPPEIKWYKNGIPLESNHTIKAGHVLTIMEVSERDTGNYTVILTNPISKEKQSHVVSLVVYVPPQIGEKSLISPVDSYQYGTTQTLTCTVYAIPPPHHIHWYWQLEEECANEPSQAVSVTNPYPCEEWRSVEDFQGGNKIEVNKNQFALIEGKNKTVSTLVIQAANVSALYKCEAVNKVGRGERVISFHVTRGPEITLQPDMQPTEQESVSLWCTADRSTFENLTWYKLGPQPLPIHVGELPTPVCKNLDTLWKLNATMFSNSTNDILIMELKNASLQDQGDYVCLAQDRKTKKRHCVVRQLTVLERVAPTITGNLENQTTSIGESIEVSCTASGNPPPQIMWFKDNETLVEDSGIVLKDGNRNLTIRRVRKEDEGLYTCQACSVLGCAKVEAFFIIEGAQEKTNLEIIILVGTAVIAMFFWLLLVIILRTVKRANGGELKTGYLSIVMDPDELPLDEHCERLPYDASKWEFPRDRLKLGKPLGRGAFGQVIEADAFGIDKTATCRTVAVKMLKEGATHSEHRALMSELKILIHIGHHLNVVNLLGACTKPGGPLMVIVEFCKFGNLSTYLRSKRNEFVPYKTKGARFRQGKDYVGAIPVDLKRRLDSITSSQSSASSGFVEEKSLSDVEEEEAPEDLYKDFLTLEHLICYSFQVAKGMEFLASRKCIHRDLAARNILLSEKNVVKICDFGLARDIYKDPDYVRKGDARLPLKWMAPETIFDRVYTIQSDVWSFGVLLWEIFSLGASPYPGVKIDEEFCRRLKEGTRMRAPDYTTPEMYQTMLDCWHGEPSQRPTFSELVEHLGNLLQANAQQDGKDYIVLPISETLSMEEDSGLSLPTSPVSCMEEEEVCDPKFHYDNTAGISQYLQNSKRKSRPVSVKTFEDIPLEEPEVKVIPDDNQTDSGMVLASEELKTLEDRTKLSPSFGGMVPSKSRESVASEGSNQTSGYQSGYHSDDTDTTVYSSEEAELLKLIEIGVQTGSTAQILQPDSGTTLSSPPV

SMILES	KDR trans (% at 10 μM) [1] [%]	c-Abl (% at 10 μM) [2] [%]
CCCc1ccc(NC(=O)Nc2ccc(Cc3ccncc3)cc2)cc1 [Example 12]	97	33
CCc1ccc(NC(=O)Nc2ccc(Cc3ccncc3)cc2)cc1 [Example 13]	98	36
O=C(Nc1ccc(Cc2ccncc2)cc1)Nc1cccc(C(F)(F)F)c1 [Example 15]	99	71
O=C(Nc1cccc(C(F)(F)F)c1)N1CCc2cc(Oc3ccncc3)ccc21 [Example 19, 5(4-pyridyloxy)-N-(3-trifluoromethyl-phenyl)amino-carbonyl-2,3-dihydroindole]	86	92
O=C(Nc1cccc(C(F)(F)F)c1)N1CCCc2cc(Oc3ccncc3)ccc21 [Example 20]	93	84
O=C(Nc1ccc(Oc2cc(Cl)ncn2)cc1)Nc1cccc(C(F)(F)F)c1 [Example 21, N-(4-(6-Chloropyrimidin-4-yl)-oxyphenyl)-N′-(3-trifluoromethylphenyl)-urea]	100	70
Cc1cc(Oc2ccc(NC(=O)Nc3cccc(C(F)(F)F)c3)cc2)ccn1 [Example 30]	98	100
O=C(Nc1ccc(Oc2cc(Nc3ccc(O)cc3)ncn2)cc1)Nc1ccc(OCC(F)(F)F)c(C(F)(F)F)c1 [Example 32]	96	98

Second part, the molecule after the results:

KDR trans (% at 10 μM) [1] [%]	c-Abl (% at 10 μM) [2] [%]	SMILES
99	59	Cc1ccc(NC(=O)Nc2ccc(Oc3ccncc3)cc2)cc1 [Example 4]
99	46	CCc1ccc(NC(=O)N(C)c2ccc(Oc3ccncc3)cc2)cc1 [Example 5]
100	75	CN(C(=O)Nc1cccc(C(F)(F)F)c1)c1ccc(Oc2ccncc2)cc1 [Example 6]
97	47	CCCc1ccc(NC(=O)N(C)c2ccc(Oc3ccncc3)cc2)cc1 [Example 7]
78	48	Cc1ccc(NC(=O)N(C)c2ccc(Oc3ccncc3)cc2)cc1 [Example 8]
92	100	O=C(Nc1ccc(Oc2ccncc2)cc1)Nc1ccc(Br)c(C(F)(F)F)c1 [Example 9]
100	98	O=C(Nc1ccc(Oc2ccncc2)cc1)Nc1ccc(OCC(F)(F)F)c(C(F)(F)F)c1 [Example 10]
100	95	COc1cc(NC(=O)Nc2ccc(Oc3ccncc3)cc2)cc(C(F)(F)F)c1 [Example 11]
97	26	Cc1ccc(NC(=O)Nc2ccc(Cc3ccncc3)cc2)cc1 [Example 14]
99	66	CCc1ccc(NC(=O)Cc2ccc(Oc3ccncc3)cc2)cc1 [Example 16, N-(4-pyridin-4-yl-oxy-phenyl)acetyl-(4-ethyl-phenyl)-amide]
96	18	Cc1ccc(NC(=O)Cc2ccc(Oc3ccncc3)cc2)cc1 [Example 17]
99	61	CCCc1ccc(NC(=O)Cc2ccc(Oc3ccncc3)cc2)cc1 [Example 18]
